Assay results from paper PMC9131871, “Impact of Micropolymorphism Outside the Peptide Binding Groove in the Clinically Relevant Allele HLA-C*14 on T Cell Responses in HIV-1 Infection” (Journal of Virology, 2022).
Entries after “also recorded” stand apart in the source; their conditions may differ.

What was measured:
[1] = test system: PBMCs from HIV-1-infected HLA-C*14:02+ or HLA-C*14:03+ individuals; assay: ex vivo IFN-γ ELISPOT assay; type: cell-based, human; conditions: 1 μM peptide; for HLA-C*14 subtype of the individuals in whom responses were detected: initial screening, 10 HLA-C*14:02+ and 10 HLA-C*14:03+ individuals
Description: To clarify whether these HLA-C*14:02- and C*14:03-binding HIV-1 peptides were T cell epitopes, we investigated T cell responses to these peptides in HIV-1-infected individuals. We assessed T cell targeting of 14 putative HIV-1 epitope sites by testing responses to the 14 NL4-3 sequence-based peptides and 9 variant peptides in 10 HLA-C*14:02^+ and 10 HLA-C*14:03^+ treatment-naive individuals living with HIV-1 subtype B using ex vivo gamma interferon (IFN-γ) ELISPOT assays. To identify HLA-C*14-restricted immunodominant epitopes, we investigated whether these peptides were recognized by virus-specific T cells in 20 individuals enabling detection of epitopes typically targeted in >5% of HLA-C*14^+ individuals. […] T cell responses to variant versions of the Gag LY9, Pol KM9, and Nef IF8 peptides were detected in a number of individuals similar to the number with responses to their NL4-3 sequence-based counterparts (Fig. 3A).
FIG 3 T cell responses to HLA-C*14:02- and/or HLA-C*14:03-binding HIV-1 peptides. (A) T cell responses to HLA-C*14:02/03-binding peptides in 20 chronically HIV-1-infected Japanese individuals with HLA-C*14:02 or HLA-C*14:03. T cell targeting of 14 putative epitopes was analyzed by testing responses to 14 NL4-3 sequence-based peptides and 9 peptides that were sequence variants thereof in ex vivo IFN-γ ELISPOT assays (peptides tested at a concentration of 1 μM). A positive response was defined as >100 spots/10^6 PBMCs (indicated by the horizontal dotted line). (B) Correlation between peptide binding to HLA-C*14:02 or HLA-C*14:03 and the frequency of responders to these peptides in HLA-C*14:02^+ (blue) and HLA-C*14:03^+ (red) individuals for NL4-3 sequence-based versions of the peptides only (left) or both NL4-3 sequence-based and variant peptides (right). Statistical analyses were performed using Pearson's correlation test.
PBMCs were separated from whole blood and stored at −80°C. ELISPOT assays were performed as previously described ([13]). Briefly, 1 × 10^5 PBMCs from HIV-1-infected individuals and a 1 μM concentration of each HLA-C*14:02- and -C*14:03-eluted HIV-1 peptide were added to 96-well polyvinylidene plates (Millipore) that had been coated overnight with 5 μg/mL anti-IFN-γ MAb 1-D1K (Mabtech). The plates were incubated for 16 h at 37°C in 5% CO2, and then the cells were stained as previously described in detail ([13]). The spots were counted with an Eliphoto-Counter instrument (Minerva Teck). The number of spots was calculated per 10^6 PBMCs; 100 spots/10^6 PBMCs was defined as a positive response, as described previously ([13]).

[2] = biological target: HLA-C*14:03 (Homo sapiens, UniProt P10321, A176E/A330V/A35S/A97T/C350S/D114A/D33S/L171W/L180R/L218V/M285V/M309V/M331V/P208H/Q277E/Q291P/R121W/R243W/R45H/S123F/S297R/S48A/T329A/T363A/V319A); assay: LC-MS/MS identification of HLA-bound HIV-1 peptides from NL4-3-infected .221-C1403 cells; type: binding; set-up: key: ●: Closed circles indicate the peptide which was identified in HLA-C*1402 or/and -C*1403 expressing cells; conditions: HIV-1 NL4-3-infected .221-C1403 cells, W6/32 immunoprecipitation, two independent replicate experiments
Protocol: (§1) 721.221 cells expressing CD4 and HLA-C*14:02 (.221-C1402) or HLA-C*14:03 (.221-C1403) were infected with the laboratory-adapted NL4-3 HIV-1 strain. HLA-peptide complexes were isolated from cell lysates by immunoprecipitation with the anti-HLA class I antibody W6/32; then, peptides were eluted, fractionated by high-performance liquid chromatography (HPLC), and finally analyzed by LC-MS/MS. Two independent replicate experiments were performed, in which a total of 7,970 and 8,447 unique 8- to 13-mer peptide sequences were identified from .221-C1402 and .221-C1403 cells, respectively (Fig. 1A). Of these peptides, 6,163 were identified in both the C*14:02- and C*14:03-bound peptide data sets, while other peptides were detected in the acid-eluted fraction from only a single allele. […] These motifs are consistent with the HLA-C*1402/03 peptide motifs previously estimated using reported epitopes ([29]).
(§2) .221-C1402 and .221-C1403 cells were infected with HIV-1 NL4-3 in a low volume of RPMI 1640 medium (Thermo Fisher) containing 10% fetal bovine serum (FBS), 2 mM L-glutamine, 100 U/mL penicillin, 100 μg/mL streptomycin, and 10 mM HEPES (R10). Fifty microliters of NL4-3 stock virus (Reverse transcriptase activity (RT) value = 4 × 10^2 ng/mL) was added to 8 × 10^6 .221-C1402 cells or .221-C1403, and the cells were then incubated for 1.5 h at 37°C, after which 20 mL of R10 was added and the cells were cultured overnight. At day 1 postinfection, a further 20 mL R10 was added, and cells were split (1:2) on day 2. On day 3 postinfection, the proportion of cells infected with HIV-1 was determined by intracellular p24 staining, as previously described ([46]). Infected flasks were then harvested for immunoprecipitation of HLA-peptide complexes.
(§3) .221-C1402 cells or .221-C1403 cells infected with NL4-3 (1.5 × 10^8 to 2 × 10^8 cells) were harvested, washed in phosphate-buffered saline (PBS), and lysed in 5 mL of lysis buffer (1% IGEPAL 630, 300 mM NaCl, 100 mM Tris [pH 8.0], plus protease inhibitors) at 4°C for 45 min. Two centrifugation steps (2,000 × g for 10 min followed by 20,000 × g for 30 min at 4°C) were next employed to clear the lysates of cell debris prior to overnight capture of HLA-peptide complexes on W6/32-coated protein A‐Sepharose beads. W6/32-bound HLA-peptide complexes were sequentially washed with 10 to 20 mL of wash buffer 1 (0.005% IGEPAL, 50 mM Tris [pH 8.0], 150 mM NaCl, 5 mM EDTA), wash buffer 2 (50 mM Tris [pH 8.0], 150 mM NaCl), wash buffer 3 (50 mM Tris [pH 8.0], 400 mM NaCl), and finally wash buffer 4 (50 mM Tris [pH 8.0]) under gravity flow in Econo-Column glass chromatography columns (Bio-Rad). Peptide-HLA complexes were eluted from the beads with 5 mL of 10% acetic acid and, after drying under vacuum, were loaded onto a 4.6- by 50-mm ProSwift RP-1S column (Thermo Fisher Scientific) and eluted from an Ultimate 3000 HPLC system (Thermo Scientific) using a 500-μL/min flow rate over 10 min from 2% to 34% buffer B (0.1% trifluoroacetic acid [TFA] in acetonitrile) in buffer A (0.1% TFA in water). Alternate fractions were pooled to give two final peptide fractions that were dried for LC-MS/MS analysis.
(§4) Each HPLC-eluted sample was resuspended in 20 μL loading buffer, and 9 μL of it was injected onto a 3-μm-particle-size 0.075-mm by 150-mm Acclaim PepMap RSLC C18 column and further loaded onto a 2-μm-particle-size, 75-μm by 50-cm Acclaim PepMap RSLC C18 column using an Ultimate 3000 nUPLC system (Thermo Scientific). A linear gradient of 3 to 25% buffer B (0.1% formic acid, 5% dimethyl sulfoxide [DMSO] in acetonitrile) in buffer A (0.1% formic acid, 5% DMSO in water) was applied over 1 h to elute peptides from the column (flow rate of […]). Peptides were introduced, using an Easy-Spray source at 2,000 V at 40°C, into a Fusion Lumos mass spectrometer (Thermo Scientific). The ion transfer tube temperature was set to 305°C. […]

[3] = biological target: HLA-C*14:02 (Homo sapiens, UniProt P10321, A176E/A330V/A35S/A97T/C350S/D114A/D33S/L171W/L180R/L218V/M285V/M309V/M331V/P208H/Q277E/Q291P/R121W/R243W/S123F/S297R/S48A/T329A/T363A/V319A); assay: LC-MS/MS identification of HLA-bound HIV-1 peptides from NL4-3-infected .221-C1402 cells; type: binding; set-up: key: ●: Closed circles indicate the peptide which was identified in HLA-C*1402 or/and -C*1403 expressing cells; conditions: HIV-1 NL4-3-infected .221-C1402 cells, W6/32 immunoprecipitation, two independent replicate experiments
Protocol: as §1, §2, §3, §4

[4] = 10 HLA-C*14:02+ and 10 HLA-C*14:03+ treatment-naive individuals, positive >100 spots/10^6 PBMCs

Sequence: AFHHMAREK [Nef AL9-5M9K, variant of Nef AL9, …, present in Japanese cohort viruses]
- T cell responses to peptide detected [1, 4]: not detected in any of the 20 individuals

Sequence: AFPQGKAREF [Pol AF10, HIV-1 NL4-3 Pol 7–16 peptide […], eluted only, not synthesized]
- C1403: peptide identified by LC-MS/MS in HLA-I eluate [2]: ●
- C1402: peptide identified by LC-MS/MS in HLA-I eluate [3]: ●

Sequence: AFVTIGKIGNM [Env AM11, HIV-1 NL4-3 Env 316–326 peptide […], eluted only, not synthesized]
- C1403: peptide identified by LC-MS/MS in HLA-I eluate [2]: ●

Sequence: FHHVAREL [Nef FL8, HIV-1 NL4-3 Nef 191–198 peptide FHHVAREL]
- C1403: peptide identified by LC-MS/MS in HLA-I eluate [2]: ●
- C1402: peptide identified by LC-MS/MS in HLA-I eluate [3]: ●

Sequence: FYVDGAANRET [Pol FT11, HIV-1 NL4-3 Pol 595–605 peptide […]]
- C1403: peptide identified by LC-MS/MS in HLA-I eluate [2]: ●

Sequence: IYHTQGYFP [Nef IP9, HIV-1 NL4-3 Nef 114–122 peptide …]
- C1403: peptide identified by LC-MS/MS in HLA-I eluate [2]: ●
- C1402: peptide identified by LC-MS/MS in HLA-I eluate [3]: ●

Sequence: KYHNNWRAM [Pol KM9-4N, variant of Pol KM9, …, present in Japanese cohort viruses]
- T cell responses to peptide detected [1, 4]: detected in one or more individuals
- HLA-C*14 subtype of the individuals in whom responses were detected [1]: detected in only HLA-C*14:02^+ or HLA-C*14:03^+ individuals

Sequence: LFNTVAVL [Gag LL8-2F5V, variant of Gag LL8, LFNTVAVL, present in Japanese cohort viruses]
- T cell responses to peptide detected [1, 4]: detected in one or more individuals; also recorded: weak response
- number of individuals with T cell response, of 20 tested [1, 4]: one
- HLA-C*14 subtype of the individuals in whom responses were detected [1]: detected in only HLA-C*14:02^+ or HLA-C*14:03^+ individuals

Sequence: LFNTVAVLY [Gag LY9-2F5V, variant of Gag LY9, …, present in Japanese cohort viruses]
- T cell responses to peptide detected [1, 4]: detected in one or more individuals

Sequence: LYNTIAVL [Gag LL8, HIV-1 NL4-3 Gag 78–85 peptide LYNTIAVL eluted from HLA-C*14-expressing cells]
- C1403: peptide identified by LC-MS/MS in HLA-I eluate [2]: ●
- T cell responses to peptide detected [1, 4]: No T cell recognition; also recorded: no strong T cell responses
- C1402: peptide identified by LC-MS/MS in HLA-I eluate [3]: ●

Sequence: PQGKAREF [Pol PF8, HIV-1 NL4-3 Pol 9–16 peptide PQGKAREF, eluted only, not synthesized]
- C1403: peptide identified by LC-MS/MS in HLA-I eluate [2]: ●

Sequence: SFNISTSI [Env SI8, HIV-1 NL4-3 Env 158–165 peptide SFNISTSI, eluted only, not synthesized]
- C1403: peptide identified by LC-MS/MS in HLA-I eluate [2]: ●

Sequence: VTIGKIGNM [Env VM9, HIV-1 NL4-3 Env 318–326 peptide …, eluted only, not synthesized]
- C1402: peptide identified by LC-MS/MS in HLA-I eluate [3]: ●

Sequence: VWGRDNNSL [Pol VWL9, HIV-1 NL4-3 Pol 33–41 peptide …, eluted only, not synthesized]
- C1403: peptide identified by LC-MS/MS in HLA-I eluate [2]: ●
- C1402: peptide identified by LC-MS/MS in HLA-I eluate [3]: ●

Sequence: VYHTQGYF [Nef IF8-1V, variant of Nef IF8, VYHTQGYF, present in Japanese cohort viruses]
- T cell responses to peptide detected [1, 4]: detected in one or more individuals

Sequence: VYLAWVPAH [Pol VH9, HIV-1 NL4-3 Pol 686–694 peptide …]
- C1403: peptide identified by LC-MS/MS in HLA-I eluate [2]: ●

Sequence: VYYDPSKDLIA [Pol VA11, HIV-1 NL4-3 Pol 472–482 peptide […]]
- C1403: peptide identified by LC-MS/MS in HLA-I eluate [2]: ●

Sequence: YTSLIHSLI [Env YI9, HIV-1 NL4-3 Env 638–646 peptide …, eluted only, not synthesized]
- C1402: peptide identified by LC-MS/MS in HLA-I eluate [3]: ●
